Test results published in PubChem BioAssay AID1963866 (Molecular Pharmacology Branch, DTP, NCI, 2024).

System: PDC KRAS tumor spheroids with HUVEC/MSC, viability
Assay: Anticancer human tumor 349418-098-R-PDC patient-derived lung adenocarcinoma cell line growth inhibition [KRAS2]
Conditions: for viability, T/C: stronger effect = lower value
Method in brief: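 KRAS-mutant tumor cells were grown as spheroids with HUVEC endothelial cells and human MSCs as stroma. Targeted agents were tested alone and with KRAS pathway inhibitors. Doses started at or near clinical Cmax, or 10 microM, descending half-log.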

[1] = curve of first compound, second compound 0.1 µM
[2] = curve of first compound, second compound 0.316 µM
[3] = curve of first compound, second compound 1 µM
[4] = curve of first compound, second compound 3.16 µM
[5] = curve of first compound, second compound 10 µM
[6] = second compound 0.1 µM, first compound 0.0316 µM
[7] = second compound 0.1 µM, first compound 0.1 µM
[8] = second compound 0.1 µM, first compound 0.316 µM
[9] = second compound 0.1 µM, first compound 1 µM
[10] = second compound 0.1 µM, first compound 3.16 µM
[11] = second compound 0.1 µM, first compound 10 µM
[12] = second compound 0.316 µM, first compound 0.0316 µM
[13] = second compound 0.316 µM, first compound 0.1 µM
[14] = second compound 0.316 µM, first compound 0.316 µM
[15] = second compound 0.316 µM, first compound 1 µM
[16] = second compound 0.316 µM, first compound 3.16 µM
[17] = second compound 0.316 µM, first compound 10 µM
[18] = second compound 1 µM, first compound 0.0316 µM
[19] = second compound 1 µM, first compound 0.1 µM
[20] = second compound 1 µM, first compound 0.316 µM
[21] = second compound 1 µM, first compound 1 µM
[22] = second compound 1 µM, first compound 3.16 µM
[23] = second compound 1 µM, first compound 10 µM
[24] = second compound 3.16 µM, first compound 0.0316 µM
[25] = second compound 3.16 µM, first compound 0.1 µM
[26] = second compound 3.16 µM, first compound 0.316 µM
[27] = second compound 3.16 µM, first compound 1 µM
[28] = second compound 3.16 µM, first compound 3.16 µM
[29] = second compound 3.16 µM, first compound 10 µM
[30] = second compound 10 µM, first compound 0.0316 µM
[31] = second compound 10 µM, first compound 0.1 µM
[32] = second compound 10 µM, first compound 0.316 µM
[33] = second compound 10 µM, first compound 1 µM
[34] = second compound 10 µM, first compound 3.16 µM
[35] = second compound 10 µM, first compound 10 µM
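Also: spheroids exposed to compounds for seven days before readout.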

**Q.** Which IC50 [1] does the source give for `CC1(C)CCC(CN2CCN(c3ccc(C(=O)NS(=O)(=O)c4ccc(NCC5CCOCC5)c([N+](=O)[O-])c4)c(Oc4cnc5[nH]ccc5c4)c3)CC2)=C(c2ccc(Cl)cc2)C1` + COc1cc2nc(C)nc(NC(C)c3cc(N)cc(C(F)(F)F)c3)c2cc1OC1CCOC1 here?
**A.** Its IC50 is 1770 nM.

**Q.** And the IC50 [2]?
**A.** The IC50 was 1860 nM.

**Q.** What about the IC50 [3] of the same compound?
**A.** Its IC50 is 1760 nM.

**Q.** What about the IC50 [4] of the same compound?
**A.** The IC50 was 1560 nM.

**Q.** What about the IC50 [5] of the same compound?
**A.** Its IC50 is under 31.6 nM.

**Q.** And the viability, T/C [6]?
**A.** The viability, T/C was 104%.

**Q.** What about the viability, T/C [7] of the same compound?
**A.** The viability, T/C was 103%.

**Q.** And the viability, T/C [8]?
**A.** Its viability, T/C is 105%.

**Q.** And the viability, T/C [9]?
**A.** Its viability, T/C is 85.1%.

**Q.** And the viability, T/C [10]?
**A.** Its viability, T/C is 14%.

**Q.** And the viability, T/C [11]?
**A.** The viability, T/C was 5.48%.

**Q.** What about the viability, T/C [12] of the same compound?
**A.** Its viability, T/C is 104%.

**Q.** And the viability, T/C [13]?
**A.** Its viability, T/C is 97.9%.

**Q.** And the viability, T/C [14]?
**A.** Its viability, T/C is 95.3%.

**Q.** And the viability, T/C [15]?
**A.** The viability, T/C was 90.6%.

**Q.** What about the viability, T/C [16] of the same compound?
**A.** Its viability, T/C is 15.3%.

**Q.** What about the viability, T/C [17] of the same compound?
**A.** Its viability, T/C is 4.54%.

**Q.** What about the viability, T/C [18] of the same compound?
**A.** Its viability, T/C is 102%.

**Q.** And the viability, T/C [19]?
**A.** The viability, T/C was 94.2%.

**Q.** What about the viability, T/C [20] of the same compound?
**A.** The viability, T/C was 95.7%.

**Q.** And the viability, T/C [21]?
**A.** Its viability, T/C is 86.1%.

**Q.** And the viability, T/C [22]?
**A.** Its viability, T/C is 12.8%.

**Q.** And the viability, T/C [23]?
**A.** Its viability, T/C is 3.87%.

**Q.** What about the viability, T/C [24] of the same compound?
**A.** The viability, T/C was 78.9%.

**Q.** What about the viability, T/C [25] of the same compound?
**A.** Its viability, T/C is 93.9%.

**Q.** And the viability, T/C [26]?
**A.** Its viability, T/C is 86%.

**Q.** And the viability, T/C [27]?
**A.** Its viability, T/C is 75.1%.

**Q.** What about the viability, T/C [28] of the same compound?
**A.** Its viability, T/C is 10.2%.

**Q.** What about the viability, T/C [29] of the same compound?
**A.** Its viability, T/C is 5.85%.

**Q.** What about the viability, T/C [30] of the same compound?
**A.** Its viability, T/C is 35.2%.

**Q.** And the viability, T/C [31]?
**A.** The viability, T/C was 32.9%.

**Q.** What about the viability, T/C [32] of the same compound?
**A.** Its viability, T/C is 32.3%.

**Q.** And the viability, T/C [33]?
**A.** Its viability, T/C is 21.9%.

**Q.** What about the viability, T/C [34] of the same compound?
**A.** The viability, T/C was 4.35%.

**Q.** What about the viability, T/C [35] of the same compound?
**A.** Its viability, T/C is 2.8%.

**Q.** What does the source list for `CC1COCCN1c1cc(-c2ccnn2C)c2ccnc(-c3ccn[nH]3)c2n1` (centres undefined) + CC1OCC2(CCN(c3cnc(Sc4ccnc(N)c4Cl)c(N)n3)CC2)C1N?
**A.** IC50 [1]: 30.4 nM; IC50 [2]: 26.9 nM; IC50 [3]: 37.8 nM; IC50 [4]: 37.4 nM; IC50 [5]: 25.4 nM; viability, T/C (second compound 0.1 µM, first compound 0.01 µM): 98.1%; viability, T/C [6]: 48.2%; viability, T/C [7]: 9.73%; viability, T/C [8]: 7%; viability, T/C [9]: 4.41%; viability, T/C [10]: 4.8%; viability, T/C (second compound 0.316 µM, first compound 0.01 µM): 115%; viability, T/C [12]: 39.4%; viability, T/C [13]: 9.52%; viability, T/C [14]: 7.35%; viability, T/C [15]: 4.82%; viability, T/C [16]: 4.26%; viability, T/C (second compound 1 µM, first compound 0.01 µM): 117%; viability, T/C [18]: 56.9%; viability, T/C [19]: 12.2%; viability, T/C [20]: 7.13%; viability, T/C [21]: 5.99%; viability, T/C [22]: 4.5%; viability, T/C (second compound 3.16 µM, first compound 0.01 µM): 97.7%; viability, T/C [24]: 56.8%; viability, T/C [25]: 10.1%; viability, T/C [26]: 6.94%; viability, T/C [27]: 4.63%; viability, T/C [28]: 4.81%; viability, T/C (second compound 10 µM, first compound 0.01 µM): 89.6%; viability, T/C [30]: 40.6%; viability, T/C [31]: 9.52%; viability, T/C [32]: 5.38%; viability, T/C [33]: 4.95%; viability, T/C [34]: 4.71%

**Q.** Which viability, T/C (compound 0.01 µM) does the source give for `CC(=O)OC12COC1CC(O)C1(C)C(=O)C(O)C3=C(C)C(OC(=O)C(O)C(NC(=O)OC(C)(C)C)c4ccccc4)CC(O)(C(OC(=O)c4ccccc4)C21)C3(C)C` (centres undefined) here?
**A.** The viability, T/C was 15% [middle of 5 runs].

**Q.** And the viability, T/C (compound 0.0316 µM)?
**A.** The viability, T/C was 17.7% [middle of 5 runs].

**Q.** And the viability, T/C (compound 0.1 µM)?
**A.** The viability, T/C was 19.3% [middle of 5 runs].

**Q.** What about the viability, T/C (compound 0.316 µM) of the same compound?
**A.** The viability, T/C was 22.6% [middle of 5 runs].

**Q.** And the viability, T/C (compound 1 µM)?
**A.** The viability, T/C was 32.3% [middle of 4 runs].

**Q.** And the viability, T/C (compound 3.16 µM)?
**A.** Its viability, T/C is 25.7% [middle of 5 runs].

**Q.** What about the IC50 (curve of compound) of the same compound?
**A.** Its IC50 is under 10 nM.

**Q.** Which results are given for `Cn1nccc1Nc1nccc(-c2cc3c(s2)C(C)(C)N(CCN2CCOCC2)C3=O)n1` + CNCc1ccccc1-c1csc(C(C)Nc2nc(C)nc3cc(OC)c(OC)cc23)c1?
**A.** IC50 [1]: 37.8 nM; IC50 [2]: < 31.6 nM; IC50 [3]: < 31.6 nM; IC50 [4]: < 31.6 nM; IC50 [5]: < 31.6 nM; viability, T/C [6]: 54.8%; viability, T/C [7]: 25.9%; viability, T/C [8]: 12.2%; viability, T/C [9]: 8.63%; viability, T/C [10]: 5.95%; viability, T/C [11]: 4.72%; viability, T/C [12]: 48.3%; viability, T/C [13]: 21.5%; viability, T/C [14]: 10.3%; viability, T/C [15]: 6.91%; viability, T/C [16]: 6.22%; viability, T/C [17]: 3.95%; viability, T/C [18]: 28.4%; viability, T/C [19]: 8.49%; viability, T/C [20]: 3.82%; viability, T/C [21]: 2.34%; viability, T/C [22]: 1.92%; viability, T/C [23]: 1.22%; viability, T/C [24]: 0.04%; viability, T/C [25]: 0.3%; viability, T/C [26]: 0.06%; viability, T/C [27]: 0.07%; viability, T/C [28]: 0.05%; viability, T/C [29]: 0.1%; viability, T/C [30]: 0.19%; viability, T/C [31]: 0.25%; viability, T/C [32]: 0.07%; viability, T/C [33]: 0.08%; viability, T/C [34]: 0.23%; viability, T/C [35]: 0.13%

**Q.** With `COC(=O)c1ccc2c(C(=Nc3ccc(N(C)C(=O)CN4CCN(C)CC4)cc3)c3ccccc3)c(O)[nH]c2c1` as the compound, how does the viability, T/C (compound 3.16 µM) read?
**A.** Its viability, T/C is 24.1% [middle of 5 runs].

**Q.** And the viability, T/C (compound 10 µM)?
**A.** The viability, T/C was 16.1% [middle of 5 runs].

**Q.** What does the source list for `COc1cc2nccc(Oc3ccc(NC(=O)C4(C(=O)Nc5ccc(F)cc5)CC4)cc3)c2cc1OC` + CNCc1ccccc1-c1csc(C(C)Nc2nc(C)nc3cc(OC)c(OC)cc23)c1?
**A.** IC50 [1]: 1570 nM; IC50 [2]: 1640 nM; IC50 [3]: 596 nM; IC50 [4]: < 31.6 nM; IC50 [5]: < 31.6 nM; viability, T/C [6]: 101%; viability, T/C [7]: 99.5%; viability, T/C [8]: 95.4%; viability, T/C [9]: 73.3%; viability, T/C [10]: 9.71%; viability, T/C [11]: 18.6%; viability, T/C [12]: 97.4%; viability, T/C [13]: 95%; viability, T/C [14]: 85.5%; viability, T/C [15]: 79.6%; viability, T/C [16]: 7.07%; viability, T/C [17]: 14.3%; viability, T/C [18]: 95.4%; viability, T/C [19]: 93.9%; viability, T/C [20]: 78.4%; viability, T/C [21]: 26.9%; viability, T/C [22]: 0.88%; viability, T/C [23]: 1.04%; viability, T/C [24]: 0.14%; viability, T/C [25]: 0.09%; viability, T/C [26]: 0.12%; viability, T/C [27]: 0.04%; viability, T/C [28]: 0.12%; viability, T/C [29]: 0.08%; viability, T/C [30]: 0.08%; viability, T/C [31]: 0.07%; viability, T/C [32]: 0.08%; viability, T/C [33]: 0.24%; viability, T/C [34]: 0.07%; viability, T/C [35]: 0.13%
